Experimental data published in patent US20210154162A1, “DRUG AND PHARMACEUTICAL COMPOSITION CONTAINING TRANSPORT PROTEIN INHIBITOR, AND USE” (Institute of Basic Medical Sciences Chinese Academy of …, priority 2018, published 2021).

Assays:
CD8^+ T cells = assay: Essential amino acids in the cytosol of activated CD8+ T cells (LC-QE-MS); assay type: cell-based; details: 48-hour Kyn treatment
From the text: Regarding the antiport function in many transport systems, the inventors additionally analyzed the influence of SLC7A8 and PAT4 on the transport of other essential amino acids. After 48-hour treatment with or without Kyn, anti-CD3/CD28 bead-activated CD8^+ T cells were used to analyze essential amino acids in the cytosol by LC-QE-MS.

PAT4 and SLC7A8 [1] = assay: PAT4 and SLC7A8 expression in activated CD8+ T cells (real-time PCR, immunostaining); assay type: cell-based, mouse; details: activated CD8+ T cells, Kyn 200 μM, 24 h
Method: (2) Activated CD8^+ T cells were treated with PBS or Kyn (200 μM) for 24 h. The expression of PAT4 and SLC7A8 was determined by real-time PCR (left) and immunostaining (right). Bar, […].
(6) The mRNA expression of PAT4 and SLC7A8 was determined in activated CD8^+ T cells treated with PBS, Kyn, Kyn/CH-223191 (10 μM) or Kyn/DMF (20 μM) for 48 h.

PAT4 and SLC7A8 [2] = assay: Effect of Kyn on the expression of PAT4 and SLC7A8 in human peripheral blood CD8+ T cells (fluorescence quantitative PCR); assay type: cell-based; details: activated peripheral blood CD8+ T cells of breast cancer patients, 200 μM Kyn, 48 h
Method: Mononuclear cells were isolated and obtained from the peripheral whole blood of breast cancer patients by using Ficoll. CD8^+ T cells were sorted by magnetic beads, and seeded into a U-shaped bottom 96-well plate (100000 cells/well) while anti-CD3/CD28 magnetic beads were added to activate T cells. The culture medium was RPMI-1640 added with 10 ng/mL human IL-2. Cells were grouped and treated with drugs as follows. Control group 1 (PBS): culture medium+PBS; Experimental group 2 (Kyn): culture medium+200 μM Kyn; RNA was collected from cells in each group after 48 h, and the expression of PAT4 and SLC7A8 was determined by fluorescence quantitative PCR.

PD-1 [3] = assay: Effect of SAR and BCH on PD-1 expression in human peripheral blood CD8+ T cells (flow cytometry); assay type: cell-based; details: breast cancer patients, 200 μM Kyn, 48 h
Method: Mononuclear cells were isolated and obtained from the peripheral whole blood of breast cancer patients by using Ficoll. CD8^+ T cells were sorted by magnetic beads, and seeded into a U-shaped bottom 96-well plate (100000 cells/well) while anti-CD3/CD28 magnetic beads were added to activate T cells. The culture medium was RPMI-1640 added with 10 ng/mL human IL-2. Cells were grouped and treated with drugs as follows.
(§1) Control group 1 (PBS): culture medium+PBS;
(§2) Experimental group 2 (Kyn): culture medium+200 μM Kyn;
Experimental group 3 (Kyn+SAR): culture medium+200 μM Kyn+10 mM SAR; Experimental group 4 (Kyn+BCH): culture medium+200 μM Kyn+100 μM BCH;
(§3) The expression level of PD-1 in CD8^+ T cells of each group was determined by flow cytometry after 48 h.

PAT4 and SLC7A8 [4] = assay: Effect of Kyn on the expression of PAT4 and SLC7A8 in OT-1 CD8+ T cells (fluorescence quantitative PCR); assay type: cell-based; details: activated mouse CD8+ T cells, 200 μM Kyn, 48 h
Method: Splenic CD8^+ T cells of OT-1 mice were obtained by magnetic bead sorting, and seeded into a 24-well plate (1 million cells/well) while anti-CD3/CD28 magnetic beads were added to activate T cells. The culture medium was RPMI-1640 added with 10 ng/mL mouse IL-2 and […] β-mercaptoethanol. Cells were grouped and treated with drugs as follows. Control group 1 (PBS): culture medium+PBS; Experimental group 2 (Kyn): culture medium+200 μM Kyn; RNA was collected from cells in each group after 48 h, and the expression of PAT4 and SLC7A8 was determined by fluorescence quantitative PCR.

PAT4 and SLC7A8 [5] = assay: PAT4 and SLC7A8 expression in CD8+ T cells from breast cancer patients (real-time PCR); assay type: cell-based, human; details: human CD8+ T cells, Kyn, 48 h
Method: (8) CD8^+ T cells from breast cancer patients were treated with PBS, Kyn ([…] (20 μM) or Kyn/CH (50 μM) for 48 h. The expression of PAT4 and SLC7A8 was determined by real-time PCR. The determination results were as shown in FIG. 7I.

PD-1 [6] = assay: Effect of SAR and BCH on PD-1 expression in mouse CD8+ T cells (flow cytometry); assay type: cell-based; details: 200 μM Kyn, 48 h
Method: Mouse splenic CD8^+ T cells were obtained by magnetic bead sorting, and seeded into a U-shaped bottom 96-well plate (100000 cells/well) while anti-CD3/CD28 magnetic beads were added to activate T cells. The culture medium was RPMI-1640 added with 10 ng/mL mouse IL-2 and […] β-mercaptoethanol. Cells were grouped and treated with drugs as follows.
as §1, §2
Experimental group 3 (Kyn+SAR): culture medium+200 μM Kyn+10 mM SAR;
Experimental group 4 (Kyn+BCH): culture medium+200 μM Kyn+100 μM BCH;
as §3

PD-1 [7] = assay: PD-1 expression in human CD8+ T cells treated with Kyn and AhR inhibitors (flow cytometry); assay type: cell-based; details: resting and activated CD8+ T cells from healthy donors, breast and lung cancer patients; Kyn 200 μM, 48 h
Method: (4) CD8^+ T cells isolated from PBMCs of patients with breast cancer or lung cancer were activated by anti-CD3/CD28 beads and treated with PBS, Kyn (200 μM) or Kyn/DMF (20 μM) for 48 h. The expression of PD-1 was determined by flow cytometry.
(5) CD8^+ T cells isolated from patients with breast cancer or lung cancer were treated with DMF (20 μM) for 48 h. PD-1 expression was determined by flow cytometry (n=6).

PD-1 promoter = PD-1 promoter luciferase reporter in HEK293T cells; assay type: cell-based; details: Kyn 48 h
Method: (6) HEK293T cells were transiently co-transfected with the luciferase reporter PGL3 coupled to the PD-1 promoter together with an AhR or an empty plasmid for 24 h and then treated with Kyn for another 48 h.

PD-1 [8] = assay: PD-1 expression in anti-CD3/CD28 bead-activated CD8+ T cells treated with Kyn or other tryptophan metabolites (flow cytometry); assay type: cell-based, mouse; details: Kyn at different concentrations; 200 μM for different time periods; anti-CD3/CD28 microbeads
Method: (4) The isolated splenic CD8^+ T cells were incubated with anti-CD3/CD28 beads in the presence of different concentrations of Kyn. PD-1 expression was determined by flow cytometry.
(5) The experimental steps were the same as those of step (4), except that CD8^+ T cells were treated with 200 μM Kyn for different time periods as shown in FIG. 2E.
(6) Anti-CD3/CD28 bead-activated CTLs were treated with PBS, 200 μM Kyn or other metabolites (500 μM) from the tryptophan pathway (melatonin, kynurinic acid and indoxyle sulphate). After 24 h, PD-1 expression was determined by flow cytometry.

Structure (SMILES): Nc1ccccc1C(=O)CC(N)C(=O)O (centres unmarked) [Kyn, kynurenine]
- essential amino acids in the cytosol (CD8^+ T cells): had no effect on most of the essential amino acids except some decrease of the intensity of threonine
- expression of SLC7A8 and PAT4 (PAT4 and SLC7A8 [1]): strikingly resulted in the upregulation
- expression of PAT4 and SLC7A8 (PAT4 and SLC7A8 [2]): significantly upregulating
- PD-1 expression in peripheral blood CD8+ T cells (PD-1 [3]): significant increased
- expression of PAT4 and SLC7A8 (PAT4 and SLC7A8 [4]): significantly upregulating
- expression of SLC7A8 and PAT4 (PAT4 and SLC7A8 [5]): upregulated
- expression of PD-1 in CD8+ T cells (PD-1 [6]): significant increased
- PD-1 expression (PD-1 [7]): upregulated
- increase of the luciferase activity (PD-1 promoter; HEK293T overexpressing AhR): 12 fold
- increase of the luciferase activity (PD-1 promoter; HEK293T with intrinsic AhR expression (empty control plasmid)): 4 fold
- PD-1 expression (PD-1 [8]): markedly upregulated
